{"source": "patent US20130028959A1", "about": "“Liposomes for Preventing the Spread of HIV” (Massachusetts Institute of Technology, priority 2009, published 2013)", "experiment": "Surface charge of lipids used to make liposomes", "type": "physicochemical", "settings": "lipid used to make liposomes", "data": [{"substance": "Phosphatidylcholine [Phosphatidylcholine (PC)]", "values": [{"measurement": "Relative charge", "value": "No"}]}]}
